Tests used:
[1] = target: SYK (Homo sapiens, UniProt P43405); test: SYK enzyme assay, coupled enzyme assay; type: biochemical; details: 200 μM ATP, 4 μM poly Gly-Tyr peptide, 30° C.
Experimental: Compounds were screened for their ability to inhibit SYK using a standard coupled enzyme assay (Fox et al., Protein Sci. 1998, 7, 2249). Reactions were carried out in 100 mM HEPES (pH 7.5), 10 mM MgCl2, 25 mM NaCl, 1 mM DTT and 1.5% DMSO. Final substrate concentrations in the assay were 200 μM ATP (Sigma chemical Co.) and 4 μM poly Gly-Tyr peptide (Sigma Chemical Co.). Assays were carried out at 30° C. and 200 nM SYK. Final concentrations of the components of the coupled enzyme system were 2.5 mM phosphoenolpyruvate, 300 μM NADH, 30 μg/ml pyruvate kinase and 10 μg/ml lactate dehydrogenase.
An assay stock buffer solution was prepared containing all of the reagents listed above, with the exception of SYK, DTT, and the test compound of interest of the present invention. 56 μl of the test reaction was placed in a 96 well plate followed by the addition of 1 μl of 2 mM DMSO stock containing the test compound of the present invnetion (final compound concentration 30 μM). The plate was pre-incubated for ˜10 minutes at 30° C. and the reaction initiated by the addition of 10 μl of enzyme (final concentration 25 nM). Rates of reaction were obtained using a BioRad Ultramark plate reader (Hercules, Calif.) over a 5 minute read time at 30° C., and Ki values for the compounds of the present invention were determined according to standard methods.

[2] = target: T1, TAK1A-TAB fusion protein (Homo sapiens, UniProt O43318); test: TAK-1 inhibition assay, radiometric filter binding assay; type: biochemical; details: 50 μM ATP, 12 μM bovine myelin basic protein, 20 nM TAK1A-TAB fusion protein
T1 construct: using 20 nM TAK1A-TAB fusion protein
T1 sequence (O43318 with tags, fused parts or gaps isoform O43318-2 limits assumed): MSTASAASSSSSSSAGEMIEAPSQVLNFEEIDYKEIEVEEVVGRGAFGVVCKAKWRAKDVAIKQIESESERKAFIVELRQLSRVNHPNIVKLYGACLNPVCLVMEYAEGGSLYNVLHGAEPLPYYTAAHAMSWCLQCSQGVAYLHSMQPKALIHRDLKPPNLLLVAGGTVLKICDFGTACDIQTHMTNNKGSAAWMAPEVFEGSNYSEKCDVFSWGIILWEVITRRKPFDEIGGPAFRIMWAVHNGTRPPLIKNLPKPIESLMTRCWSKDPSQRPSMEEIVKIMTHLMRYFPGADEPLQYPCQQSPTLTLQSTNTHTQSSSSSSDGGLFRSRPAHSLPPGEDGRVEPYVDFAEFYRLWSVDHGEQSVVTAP
Experimental: Compounds were screened for their ability to inhibit TAK1A kinase activity using a radiometric filter binding assay. Reactions were carried out in a solution containing Buffer A (100 mM HEPES (pH 7.5), 10 mM MgCl2), 25 mM NaCl, 2 mM DTT, and 1.5% DMSO. Final substrate concentrations in the assay were 50 μM ATP (a mixture of unlabeled ATP (Sigma Chemicals, St Louis, Mo.) and ^33P-labeled ATP (PerkinElmer Life Sciences, Boston, Mass.) for a final specific activity of 50 Ci/mol), and 12 μM bovine myelin basic protein (MBP, Vertex Pharmaceuticals, Cambridge, Mass.). Reactions were carried out at ambient temperature (˜20° C.) using 20 nM TAK1A-TAB fusion protein. Under these conditions the extent of reaction is linear with time for a period of 2 hours.
A test compound of the present invention (1 μL in DMSO) was combined with ATP and Buffer A in a final volume of 47 μL in a 96 well plate. Typically, a 6 point titration was conducted by preparing serial dilutions (from 10 mM compound stocks) with DMSO of the test compounds of the present invention in daughter plates, for final concentrations spanning 0.046 μM to 3.73 μM. The reaction was initiated by the addition of 20 μl of an enzyme stock solution consisting of TAK1A-TAB fusion (described by Sugita, T. et al. in Biochem. Biophys. Res. Comm. 2002, 297, 1277-1281), MBP, Buffer A, NaCl, and DTT. The reaction was allowed to proceed for two hours at ambient temperature, then quenched with an equal volume of 10 mM unlabeled ATP in 10% trichloroacetic acid. A 110 μL aliquot of the quenched reaction was transferred to a Multiscreen PH filter plate (Millipore, Billerica, Mass.) and allowed to incubate at ambient temperature overnight (typically 16-20 hours). Following incubation the filter plates were washed with 3×150 μL aliquots of 5% trichloroacetic acid using a modified Biotek Elx405 plate washer. A 70 μL aliquot of Microscint 20 scintillation fluid (PerkinElmer) was added to each well, and the plate was then sealed and read on a TopCount NXT microplate scintillation counter (PerkinElmer). The Ki values were determined from the rate data as a function of inhibitor concentration.

| Ki [1] [nM] | Ki [2] [nM] | SMILES |
| --- | --- | --- |
| 200 to 1000 | 200 to 1000 | Fc1cccc(-c2cnoc2-c2c[nH]c3ncc(-c4cnc5[nH]ccc5c4)cc23)c1F [Compound 77, 3-[4-(2,3-Difluoro-phenyl)-isoxazol-5-yl]-1H,1′H-[5,5′]bi[pyrrolo[2,3-b]pyridinyl]] |
| 1000 to 12500 | – | CN(C)Cc1ccnc(-c2cnc3[nH]cc(-c4oncc4-c4cccc(F)c4F)c3c2)c1 [Compound 82, (2-{3-[4-(2,3-Difluoro-phenyl)-isoxazol-5-yl]-1H-pyrrolo[2,3-b]pyridin-5-yl}-pyridin-4-ylmethyl)-dimethyl-amine] |
| 1000 to 12500 | – | CN(C)c1ccc(-c2cnc3[nH]cc(-c4oncc4-c4cccc(F)c4F)c3c2)cc1 [Compound 88, (4-{3-[4-(2,3-Difluoro-phenyl)-isoxazol-5-yl]-1H-pyrrolo[2,3-b]pyridin-5-yl}-phenyl)-dimethyl-amine] |
| 1000 to 12500 | 200 to 1000 | CN(C)c1ccc(-c2cnc3[nH]cc(-c4nncn4-c4cccc(F)c4F)c3c2)cc1 [Compound 106, (4-{3-[4-(2,3-Difluoro-phenyl)-4H-[1,2,4]triazol-3-yl]-1H-pyrrolo[2,3-b]pyridin-5-yl}-phenyl)-dimethyl-amine] |
| 1000 to 12500 | – | Fc1cccc(-c2cnoc2-c2c[nH]c3ncc(-c4ccc(CN5CCCC5)cc4)cc23)c1F [Compound 93, 3-[4-(2,3-Difluoro-phenyl)-isoxazol-5-yl]-5-(4-pyrrolidin-1-ylmethyl-phenyl)-1H-pyrrolo[2,3-b]pyridine] |
| 1000 to 12500 | 200 to 1000 | CS(=O)(=O)Nc1ccc(-c2cnc3[nH]cc(-c4oncc4-c4cccc(F)c4F)c3c2)cc1 [Compound 98, N-(4-{3-[4-(2,3-Difluoro-phenyl)-isoxazol-5-yl]-1H-pyrrolo[2,3-b]pyridin-5-yl}-phenyl)-methane sulfonamide] |
| 200 to 1000 | – | Nc1cccc(-c2cnc3[nH]cc(-c4oncc4-c4cccc(F)c4F)c3c2)c1 [Compound 86, 3-{3-[4-(2,3-Difluoro-phenyl)-isoxazol-5-yl]-1H-pyrrolo [2,3-b]pyridin-5-yl}-phenylamine] |
| 1000 to 12500 | – | CN(C)Cc1ccc(-c2cnc3[nH]cc(-c4oncc4-c4cccc(F)c4F)c3c2)cc1 [Compound 91, (4-{3-[4-(2,3-Difluoro-phenyl)-isoxazol-5-yl]-1H-pyrrolo[2,3-b]pyridin-5-yl}-benzyl)-dimethyl-amine] |
| 200 to 1000 | < 200 | Cc1noc(-c2c[nH]c3ncc(-c4ccc(N5CCN(C)CC5)cc4)cc23)c1-c1cccc(F)c1F [Compound 135, 3-[4-(2,3-Difluoro-phenyl)-3-methyl-isoxazol-5-yl]-5-[4-(4-methyl-piperazin-1-yl)-phenyl]-1H-pyrrolo[2,3-b]pyridine] |
| 1000 to 12500 | 200 to 1000 | CN(C)Cc1ccc(-c2cnc3[nH]cc(-c4oncc4-c4cccc(F)c4F)c3c2)nc1 [Compound 84, (6-{3-[4-(2,3-Difluoro-phenyl)-isoxazol-5-yl]-1H-pyrrolo[2,3-b]pyridin-5-yl}-pyridin-3-ylmethyl)-dimethyl-amine] |
| 200 to 1000 | – | Nc1ccc(-c2cnc3[nH]cc(-c4oncc4-c4cccc(F)c4F)c3c2)cc1 [Compound 90, 4-{3-[4-(2,3-Difluoro-phenyl)-isoxazol-5-yl]-1H-pyrrolo [2,3-b]pyridin-5-yl}-phenylamine] |
| 1000 to 12500 | 200 to 1000 | Fc1cccc(-c2cnoc2-c2c[nH]c3ncc(/C=C/n4cncn4)cc23)c1F [Compound 133, 3-[4-(2,3-Difluoro-phenyl)-isoxazol-5-yl]-5-(2-[1,2,4]triazol-1-yl-vinyl)-1H-pyrrolo[2,3-b]pyridine] |
| 1000 to 12500 | – | Cc1noc(-c2c[nH]c3ncccc23)c1-c1cccc(F)c1F [Compound 134, 3-[4-(2,3-Difluoro-phenyl)-3-methyl-isoxazol-5-yl]-1H-pyrrolo[2,3-b]pyridine] |

The next lines start with the compound.

| SMILES | Ki [1] [nM] | Ki [2] [nM] |
| --- | --- | --- |
| COc1cnc2[nH]cc(-c3oncc3-c3cccc(F)c3F)c2c1 [Compound 38, 3-[4-(2,3-Difluoro-phenyl)-isoxazol-5-yl]-5-methoxy-1H-pyrrolo[2,3-b]pyridine] | 1000 to 12500 | – |
| Fc1cccc(-c2cnoc2-c2c[nH]c3ncc(Br)cc23)c1F [Compound 37, 5-Bromo-3-[4-(2,3-difluoro-phenyl)-isoxazol-5-yl]-1H-pyrrolo[2,3-b]pyridine] | 1000 to 12500 | – |
| CN1CCN(c2ccc(-c3cnc4[nH]cc(-c5oncc5-c5cccc(F)c5F)c4c3)cc2)CC1 [Compound 70, 3-[4-(2,3-Difluoro-phenyl)-isoxazol-5-yl]-5-[4-(4-methyl-piperazin-1-yl)-phenyl]-1H-pyrrolo[2,3-b]pyridine methanesulfonate] | 200 to 1000 | < 200 |
| CN1CCN(c2ccc(-c3cnc4[nH]cc(-c5oncc5-c5cccc(F)c5F)c4c3)cn2)CC1 [Compound 71, 3-[4-(2,3-Difluoro-phenyl)-isoxazol-5-yl]-5-[6-(4-methyl-piperazin-1-yl)-pyridin-3-yl]-1H-pyrrolo[2,3-b]pyridine] | 1000 to 12500 | < 200 |
| Fc1cccc(-c2cnoc2-c2c[nH]c3ncc(-c4ccccn4)cc23)c1F [Compound 73, 3-(4-(2,3-Difluoro-phenyl)-isoxazol-5-yl)-5-pyridin-2-yl-1H-pyrrolo[2,3-b]pyridine] | 1000 to 12500 | – |
| Fc1cccc(-c2cnoc2-c2c[nH]c3ncc(-c4ccc(N5CCNCC5)cc4)cc23)c1F [Compound 68, 3-[4-(2,3-Difluoro-phenyl)-isoxazol-5-yl]-5-(4-piperazin-1-yl-phenyl)-1H-pyrrolo[2,3-b]pyridine] | 200 to 1000 | < 200 |
| Fc1cccc(-c2cnoc2-c2c[nH]c3ncc(-c4c[nH]cn4)cc23)c1F [Compound 76, 3-[4-(2,3-Difluoro-phenyl)-isoxazol-5-yl]-5-(3H-imidazol-4-yl)-1H-pyrrolo[2,3-b]pyridine] | 1000 to 12500 | – |
| Fc1cccc(-c2cnoc2-c2c[nH]c3ncccc23)c1F [Compound 1, 3-[4-(2,3-Difluoro-phenyl)-isoxazol-5-yl]-1H-pyrrolo[2,3-b]pyridine] | 200 to 1000 | – |
| CC(=O)Nc1cccc(-c2cnc3[nH]cc(-c4oncc4-c4cccc(F)c4F)c3c2)c1 [Compound 65, N-(3-{3-[4-(2,3-Difluoro-phenyl)-isoxazol-5-yl]-1H-pyrrolo[2,3-b]pyridin-5-yl}-phenyl)-acetamide] | 1000 to 12500 | – |
| Oc1cnc2[nH]cc(-c3oncc3-c3cccc(F)c3F)c2c1 [Compound 43, 3-[4-(2,3-Difluoro-phenyl)-isoxazol-5-yl]-1H-pyrrolo[2,3-b]pyridin-5-ol] | 200 to 1000 | – |
| CN(C)c1cccc(-c2cnc3[nH]cc(-c4oncc4-c4cccc(F)c4F)c3c2)c1 [Compound 61, (3-{3-[4-(2,3-Difluoro-phenyl)-isoxazol-5-yl]-1H-pyrrolo[2,3-b]pyridin-5-yl}-phenyl)-dimethyl-amine] | 1000 to 12500 | 200 to 1000 |
| O=c1ccc(-c2cnc3[nH]cc(-c4oncc4-c4cccc(F)c4F)c3c2)c[nH]1 [Compound 67, 5-{3-[4-(2,3-Difluoro-phenyl)-isoxazol-5-yl]-1H-pyrrolo [2,3-b]pyridin-5-yl}-1H-pyridin-2-one] | 200 to 1000 | – |

— US7446199B2, “Compositions useful as inhibitors of protein kinases” (Vertex Pharmaceuticals Incorporated, priority 2003, dated 2008)
